Data as given in EP3092214B1, “NITROSAMINE/NITRITE INHIBITION IN TERTIARY ALKYLAMINE OXIDE COMPOSITIONS” (EOC Surfactants N.V., priority 2014, dated 2015).
Read-outs that look alike come from different tables or passages of the source.

Assays:
[1] = Synthesis tests of cocamidopropylamine oxide with candidate inhibitors: colour of the final product; assay type: physicochemical; details: additive 0,1% by weight on amido-amine
Experimental: (§1) To a three-neck flask of 1000 ml, demi-water and citric acid were added. The acid was added in order to keep the pH of the reaction mixture below 9. Subsequently, cocamidopropylamine and hydrogen peroxide were added. The reaction mixture was heated to a desired temperature of either 50 °C or 70 °C. Upon reaching the desired reaction temperature, sodium bicarbonate was added. The pH of the reaction mixture is maintained between 7,0 and 7,5. If necessary, NaOH is added.
(§2) In the examples described below, different additives were tested for their ability to inhibit the formation of nitrosamines. Each time, during the reaction, an amount of inhibitor was added which corresponds to 0,1% by weight of the amount of added amido-amine raw material.

[2] = for Content of nitrosamines: cocamidopropylamine oxide synthesis, additive 0,1% by weight on amido-amine; for inhibitory effect on the formation of nitrosamines: result in words, tertiary alkylamine oxide (cocamidopropylamine oxide) synthesis
Experimental: For the measurement, gas chromatography in combination with a thermal energy analyzer (GC-TEA) is used. In measurements using this technique, the so-called apparent total N-nitroso compounds (ATNC) are determined by a chemical denitrosation and detection of the released […] in µg/kg (ppb). This content is also determined by denitrosation of an N-nitrosodiisopropanolamine (NDiPLA) calibration standard.
as §1, §2
The nitrosamine content was determined with the aid of a chemical denitrosation technique and measurement with a thermal energy analyzer. The detection limit of the method used was 50 µg total content of N-nitroso compounds/kg.

Structure (SMILES)	Colour ([1]; Temp 50 °C)	Content of nitrosamines ([2]; Temp 50 °C)	Content of nitrosamines ([2]; Temp 70 °C)	inhibitory effect on the formation of nitrosamines [2]	Colour ([1]; Temp 70 °C)
O=C(O)CN(CCN(CC(=O)O)CC(=O)O)CCN(CC(=O)O)CC(=O)O [DTPA Na, diethylene triamine pentaacetic acid]	27 Apha				
O=P(O)(O)CN(CCN(CP(=O)(O)O)CP(=O)(O)O)CCN(CP(=O)(O)O)CP(=O)(O)O [DTPMP, diethylenetriamine penta(methylene phosphonic acid)]	50 Apha	1637 ppb	765 ppb	insufficiently able to inhibit the formation of nitrosamines	24 Apha
O=C(O)CN(CCN(CC(=O)O)CC(=O)O)CC(=O)O [EDTA, ethylenediaminetetraacetic acid]	27 Apha	660 ppb	1550 ppb	insufficiently able to inhibit the formation of nitrosamines	37 Apha
